Results: US20160304957A1, “TREATMENT AND MODULATION OF GENE EXPRESSION AND SKIN AGING” (DSM NUTRITIONAL PRODUCTS LTD., priority 2006, published 2016)

How the values were obtained:
MMP-2 = assay: QRT-PCR gene expression in HaCaT cells with or without UVA; assay type: cell-based, human
Protocol: (§1) HaCaT cells were obtained from Prof. Fusenig, German Cancer Research Centre, Heidelberg. […] The accuracy of cell counting was approximately 99%.
(§2) On day 3 of the experiment, cells were washed six times with Ca/Mg-free PBS containing 2% BSA, and then irradiated with light with a Hönle sun lamp Sol 500 (Dr. Hönle, Plannegg, Germany) at a dose of 270 kJ/m^2 in Ca/Mg-free PBS (2 hour exposure time at […]). The experimental schedule was chosen because the cells had optimal UVA sensitivity after 48 hours in culture. […] Confluent cultures were much less sensitive to irradiation.
(§3) After irradiation, the cells were supplied with fresh β-carotene-containing serum-free medium and kept in the incubator at 37° C., 5% CO2 until harvest of the samples. In experiments in which the half-life of ^1O2 was prolonged by D2O to enhance its effect, PBS was prepared in D2O, instead of in H2O, as it was done for the standard conditions described above. Cells were washed twice in D2O-PBS prior to irradiation in D2O-PBS. After irradiation, cells were maintained with fresh β-carotene-containing serum-free medium. Sham controls were treated in an identical manner, by placing them under the solar simulator but shielded from light.
(§4) Total RNA was isolated by using Trizol™ (Invitrogen, Basel, Switzerland) according to the instructions of the manufacturer. Random-primed cDNA was synthesized using the Superscript pre-amplification system for first strand cDNA synthesis (Invitrogen).
(§5) cDNA corresponding to 10 ng total RNA was used as template to quantify the relative RNA expression of the genes of interest by TaqMan® real time PCR.
(§6) The PCR analyses were carried out in triplicate and in a multiplex setup, using 18S rRNA as a calibrator gene. The rRNA primers were used at a final concentration of 50 nM, the probe at 100 nM. For quantification of the genes of interest, the primer concentrations were optimized for sensitivity of template detection. […] PCR reactions were carried out for 40 cycles of 95° C. for 15 seconds and 60° C. for 1 minute in an ABI7700 (Applied Biosystems, Rotkreuz, Switzerland). Regulation of gene expression was calculated as described in user bulletin #2 provided by the manufacturer. A threshold cycle (“CT”) is the first PCR cycle in which an amplification signal is detected. Expression levels are given as δCT values. The δCT value describes the level of gene expression as the average PCR cycle, in which the gene of interest was detected first (CT value), subtracted by the CT value of the calibrator gene 18S rRNA (CTgene of interest−CTcalibrating gene), 18S rRNA served as a measure for the amount of template in the reaction. Routinely, 18S rRNA was detected between PCR cycle 12 and 13 (SE=standard error) A low δCT corresponds to a high mRNA level.

MMP-9 = assay: as above; assay type: cell-based, human
Protocol: as §1, §2, §3, §4, §5, §6

MMP-1 = assay: as above; assay type: cell-based, human
Protocol: as §1, §2, §3, §4, §5, §6

MMP-10 = assay: as above; assay type: cell-based, human
Protocol: as §1, §2, §3, §4, §5, §6

MMP-3 = assay: as above; assay type: cell-based, human
Protocol: as §1, §2, §3, §4, §5, §6

GADD34 = assay: QRT-PCR confirmation of gene regulation in HaCaT cells; assay type: cell-based, human; conditions: 5 hours after UVA
Protocol: (§7) FIGS. 9A-9C show β-carotene-induced inhibition of integrinα6 transcription in irradiated and unirradiated HaCaT cells (FIG. 9A) and enhancement of UVA-induced GADD34 (FIG. 9B) and GADD153 transcription (FIG. 9C). Cells were supplemented with β-carotene for 2 days prior to UVA irradiation (270 kJ/m^2) either in normal PBS or D2O-PBS. Gene expression 5 hours after irradiation was determined by quantitative real time polymerase chain reaction. (“QRT-PCR”). Values are geometric mean±standard error of three experiments.
(§8) Key gene regulation was confirmed in three independent cell irradiation experiments using TaqMan® QRT-PCR as described. In these experiments, cells were pretreated with 0.5, 1.5, or 3 μM β-carotene, to analyze for dose-dependent β-carotene effects. In addition, cells were irradiated either in D2O-containing PBS or in H2O-containing PBS, to analyze for the ^1O2 inducibility of genes.

GADD153 = assay: as above; assay type: cell-based, human; conditions: 5 hours after UVA
Protocol: as §7, §8

integrinα6 = assay: as above; assay type: cell-based, human; conditions: β-carotene, unirradiated cells
Protocol: as §7, §8

HaCaT cells = assay: Depletion of cellular β-carotene content by UVA irradiation, HPLC; assay type: in vitro ADME, human; conditions: 270 kJ/m^2 UVA
Protocol: as §2

TIMP-1 = assay: QRT-PCR gene expression in HaCaT cells with or without UVA; assay type: cell-based, human
Protocol: as §1
Vitamin E (RRR-α-tocopherol; DSM Nutritional Products, Kaiseraugst, Switzerland) stock solutions and vitamin E-containing media were prepared as described for β-carotene-containing solutions, except that vitamin E was dissolved in ethanol. In experiments addressing the vitamin E effect, vitamin E was used in a final concentration of 50 μM. Again, the solvent concentration was kept constant at 0.03% ethanol for all conditions.
as §2, with “irradiation. […]” for “irradiation.”
as §5
The PCR analyses were carried out in triplicate and in a multiplex setup, using 18S rRNA as a calibrator gene. […] For quantification of the genes of interest, the primer concentrations were optimized for sensitivity of template detection. […] Regulation of gene expression was calculated as described in user bulletin #2 provided by the manufacturer. A threshold cycle (“CT”) is the first PCR cycle in which an amplification signal is detected. […] The δCT value describes the level of gene expression as the average PCR cycle, in which the gene of interest was detected first (CT value), subtracted by the CT value of the calibrator gene 18S rRNA (CTgene of interest−CTcalibrating gene), 18S rRNA served as a measure for the amount of template in the reaction. Routinely, 18S rRNA was detected between PCR cycle 12 and 13 (SE=standard error) A low δCT corresponds to a high mRNA level.

sunburn cells = conditions: supplementation, humans; cited from earlier work
[1] = test system: retinoic acid response elements (RAREs); assay: RA-dependent reporter gene assay pGL3 (RARE)5 tk luc in HaCaT cells; assay type: cell-based, human
Protocol: HaCaT cells were transiently transfected with the reporter construct pGL3 (RARE)5 tk luc, containing five DR5-type retinoic acid response elements (“RAREs”). Luciferase activity was determined after 40 hours treatment with β-carotene. Values are means±standard error from two experiments with four replicates each.
HaCaT cells were seeded at a density of 3×10^6 cells/well in 6 well plates (BD Biosciences, Basel, Switzerland) in FAD medium containing 2% NuSerum. The cells were transfected the next day using 1 μg reporter plasmid (pGL3 (RARE)5 tk luc) and 5 μl Lipofectin (1 μg/μL; Invitrogen, Basel, Switzerland) per well. The RARE is a DR5 element identical to the wild type element of the RARβ2 promoter. The spacing between the DR5 sites is 25 nucleotides. The transfections were performed for 7.5 hours in serum-free FAD medium according to the manufacturer's protocol. […] Transactivation of the reporter gene was determined after 40 hours of β-carotene treatment.
To generate the RA standard curve, 9-cis RA and all-trans RA were used together at concentrations ranging from 10^−10 to 10^−8 M each. […] Relative luciferase units (RLU) were quantified in a luminoskan reader (Thermo Labsystems, Vantaa, Finland), and corrected by protein concentrations as determined with the BCA assay (Pierce, Rockford, USA).

caspase-3 = assay: Caspase-3 activity, CaspACE Assay System; assay type: cell-based, human
Protocol: Cells were supplemented with β-carotene for 2 days and prior to UVA irradiation (270 kJ/m^2). Caspase-3 activity was determined at 5 hours after irradiation. Values are mean±standard error of an experiment with four replicates.
Caspase-3 activity 5 hours after UVA irradiation was quantified in five separate experiments using the CaspACE™ Assay System (Promega/Catalys, Switzerland).

[2] = β-carotene 1.5 μM, with or without UVA

Q: For `CC1=C(/C=C/C(C)=C/C=C/C(C)=C/C=C/C=C(C)/C=C/C=C(C)/C=C/C2=C(C)CCCC2(C)C)C(C)(C)CCC1` [β-carotene, All-E-β-carotene], which MMP-2 expression (MMP-2; UVA/D2O experiments) is on record?
A: no significant effect

Q: What about the MMP-2 expression (MMP-2; [2]) of the same compound?
A: did not influence their expression significantly

Q: What about the MMP-9 expression (MMP-9; UVA/D2O experiments) of the same compound?
A: no significant effect

Q: And the “MMP-9 expression, tendency” value (MMP-9; irradiated and unirradiated cells)?
A: tended to lower expression

Q: What about the MMP-9 expression (MMP-9; [2]) of the same compound?
A: did not influence their expression significantly

Q: What about the “basal MMP-1 RNA expression” value (MMP-1; unirradiated cells) of the same compound?
A: tended to reduce

Q: And the “UVA-induced MMP-1 induction” value (MMP-1; β-carotene 1.5 μM, 5 hours after UVA, UVA alone 1.3 fold)?
A: 0.9 fold

Q: And the “UVA/D2O-induced MMP-1 induction” value (MMP-1; β-carotene 0.5, 1.5, 3 μM)?
A: significantly and dose-dependently reduced

Q: What about the “basal MMP-10 expression” value (MMP-10; unirradiated cells) of the same compound?
A: tended to reduce

Q: What about the “UVA induction of MMP-10” value (MMP-10; β-carotene 1.5 μM, UVA alone about 3 fold) of the same compound?
A: approx. 2.5 fold

Q: What about the “MMP-10 induction by UVA and D2O” value (MMP-10; β-carotene 0.5, 1.5, 3 μM) of the same compound?
A: opposed MMP-10 induction by UVA and D2O in a dose-dependent fashion

Q: And the “MMP-3 induction by UVA” value (MMP-3; presence or absence of D2O)?
A: prevented MMP-3 induction

Q: What about the “UVA-induction of MMP-3” value (MMP-3; β-carotene 1.5 μM, UVA alone approx. 49 fold) of the same compound?
A: 27 fold

Q: What about the “UVA-induced GADD34 transcription” value (GADD34) of the same compound?
A: enhancement

Q: What about the “UVA-induced GADD153 transcription” value (GADD153) of the same compound?
A: enhancement

Q: What about the integrinα6 transcription (integrinα6) of the same compound?
A: downregulation

Q: And the “effect of UVA on cellular β-carotene content” value (HaCaT cells; 0.5 μM β-carotene 2 days)?
A: did not reduce

Q: What about the “cellular β-carotene stores remaining after UVA irradiation” value (HaCaT cells; 1.5 or 3 μM β-carotene 2 days) of the same compound?
A: about 13%

Q: And the TIMP-1 expression (TIMP-1; UVA/D2O experiments)?
A: not significantly influenced

Q: What about the “TIMP-1 RNA level” value (TIMP-1; β-carotene, with or without UVA) of the same compound?
A: not significantly influenced

Q: And the “number of sunburn cells” value (sunburn cells)?
A: did not alter the number of sunburn cells

Q: What about the “activation of the luciferase reporter” value ([1]; 1 or 3 μM β-carotene, 40 hours) of the same compound?
A: comparable to what was achieved after treating the cells with a combination of all-trans RA and 9-cis RA at 10 nM each

Q: And the “RARE-dependent gene activation after UVA irradiation, relative to unirradiated” value ([1]; cells irradiated with UVA prior to measurement)?
A: about 70%

Q: And the caspase-3 activation (caspase-3; β-carotene alone, unirradiated)?
A: Neither UVA nor β-carotene alone activated caspase-3

Q: What about the caspase-3 activity (caspase-3; β-carotene with UVA 270 kJ/m^2, 5 hours after irradiation) of the same compound?
A: induce caspase-3 activity in a dose-dependent manner
